A value given as a limit tells only on which side of the number the result lay.

The values below come from PubChem BioAssay AID1845228.

For this data set the following is noted: pampa; 60.0 min; 50.0 µM.
Turning to `CCOC(=N)c1nc2ccc3ncnc(Nc4cc(F)c(F)cc4Cl)c3c2s1`, the Papp (commonly a coefficient for how fast a substance crosses the barrier) was determined as 1.2 ×10⁻⁶ cm/s.
The result for `N=c1c2c(-c3ccccc3)c(-c3ccccc3)n(CCc3ccccc3)c2ncn1[C@H](CO)Cc1ccccc1` reads < 1 ×10⁻⁶ cm/s; that for `COC(=O)N[C@H](C(=O)N1CCC[C@H]1C(=O)Nc1ccc([C@@H]2CC[C@@H](c3ccc(NC(=O)[C@@H]4CCCN4C(=O)[C@@H](NC(=O)OC)C(C)C)cc3)N2c2ccc(C(C)(C)C)cc2)cc1)C(C)C`, < 1 ×10⁻⁶ cm/s; that for `CCN(CC)CCCN(c1ccccc1)C1Cc2ccccc2C1`, 125 ×10⁻⁶ cm/s.
As to `Cc1onc(-c2ccccc2)c1C(=O)N[C@@H]1C(=O)N2[C@@H]1SC(C)(C)[C@@H]2C(=O)O`, the Papp was determined as 8 ×10⁻⁶ cm/s.
Under `C/C1=C\CC[C@]2(C)O[C@H]2C(=O)c2c(C)coc2C1` stands 122 ×10⁻⁶ cm/s.
The result for `N=c1c2c(-c3ccccc3)c(-c3ccccc3)n(CCc3ccccc3)c2ncn1CCCCCO` reads 183 ×10⁻⁶ cm/s; that for `Cc1nc(C2CCCCC2)c(-c2ccc(S(N)(=O)=O)c(F)c2)o1`, 172 ×10⁻⁶ cm/s.
Under `Cc1ccc(-c2c(C(=O)CF)n(CCCO)c3ncnc(N)c23)cc1` stands 18 ×10⁻⁶ cm/s.
`Cc1cc(CNC(=O)c2ccc3c(c2)n(CC2CC2)c(=O)n3C2CCCCC2)on1`: the Papp is > 300 ×10⁻⁶ cm/s.
Under `CCOc1cc2ncc(C#N)c(Nc3ccc(F)c(Cl)c3)c2cc1NC(=O)C=CCN(C)C` stands 256 ×10⁻⁶ cm/s; under `N=c1c2c(-c3ccccc3)cn(Cc3ccccc3)c2ncn1[C@H](CO)Cc1ccccc1`, 22 ×10⁻⁶ cm/s; under `CS/C=C/C(=O)O[C@@H]1CCC2=CC(=O)C(=C(C)C)C[C@]2(C)[C@H]1C`, 77 ×10⁻⁶ cm/s.
Under `Cc1[nH]c2ccccc2c1CCNCc1ccc(C=CC(=O)NO)cc1` stands < 1 ×10⁻⁶ cm/s; under `CSc1nc(N)cc(Oc2ccc(-c3nc(Nc4cccc(C(F)(F)F)c4)n[nH]3)cc2)n1`, 53.8 ×10⁻⁶ cm/s.
Under `CC1(C)S[C@@H]2[C@H](NC(=O)C(C(=O)Oc3ccc4c(c3)CCC4)c3ccccc3)C(=O)N2[C@H]1C(=O)O` (stereo not given in full) stands < 1 ×10⁻⁶ cm/s; under `CNC1CCC(N(Cc2ccc(OC)c(-c3ccc(C#N)cc3)c2)C(=O)c2sc3ccccc3c2Cl)CC1` (stereo not given), 234 ×10⁻⁶ cm/s.
Consider `C=CCNC1=C2C[C@@H](C)C[C@H](OC)[C@H](O)[C@@H](C)/C=C(\C)[C@H](OC(N)=O)[C@@H](OC)/C=C\C=C(/C)C(=O)NC(=CC1=O)C2=O`, for which the Papp stood at 73 ×10⁻⁶ cm/s.
The result for `CC(NC(CCc1ccccc1)C(=O)O)C(=O)N1C(=O)N(C)CC1C(=O)O` (stereo not given) reads < 1 ×10⁻⁶ cm/s; that for `CN(C)CCn1cnc2c(c(-c3ccccc3)c(-c3ccccc3)n2Cc2ccccc2)c1=N`, 76 ×10⁻⁶ cm/s; that for `Cn1nnnc1Sc1ncnc2scc(-c3ccc(Br)cc3)c12`, 159 ×10⁻⁶ cm/s.
Under `N[C@@H](Cc1ccc(N(CCCl)CCCl)cc1)C(=O)O` stands 131 ×10⁻⁶ cm/s; under `Cc1cc2c(C(N)=O)cccc2n1-c1nc2c(c(NCc3ccccc3)n1)COCC2`, 90 ×10⁻⁶ cm/s.
The result for `O=C(Nc1ccccc1)N1CCC(Cc2cnc3ccccc3c2)CC1` reads > 300 ×10⁻⁶ cm/s; that for `CO[C@@]1(NC(=O)C(C(=O)O)c2ccc(O)cc2)C(=O)N2C(C(=O)O)=C(CSc3nnnn3C)CO[C@@H]21` (stereo not given in full), < 1 ×10⁻⁶ cm/s; that for `O=C(CCCN1CCC(O)(c2ccc(Cl)cc2)CC1)c1ccc(F)cc1`, 217 ×10⁻⁶ cm/s.
`Cn1nnnc1Sc1ncnc2scc(-c3ccc(Cl)cc3)c12`: the Papp was > 300 ×10⁻⁶ cm/s.
The result for `O=C(NN1CCCCC1)c1nn(-c2ccc(Cl)cc2Cl)c(-c2ccc(C#Cc3ccc(C(F)(F)F)cc3)s2)c1CNS(=O)(=O)N1CCCC1` reads 4 ×10⁻⁶ cm/s.
Under `CC1(C#N)CCN(c2c(C(=O)N3CCN(S(C)(=O)=O)CC3)cnc3ccc(F)cc23)CC1` stands 19 ×10⁻⁶ cm/s; under `N=c1c2c(-c3ccccc3)c(-c3ccccc3)n(Cc3ccccc3)c2ncn1CCNc1ccncc1`, 90 ×10⁻⁶ cm/s; under `CN1N=C2CCN(C(=O)[C@H](COCc3ccccc3)NC(=O)C(C)(C)N)C[C@]2(Cc2ccccc2)C1=O`, 15 ×10⁻⁶ cm/s.
The result for `N=c1c2c(-c3ccccc3)c(-c3ccccc3)n(Cc3ccccc3)c2ncn1[C@H](CO)Cc1ccccc1` reads < 1 ×10⁻⁶ cm/s; that for `CC(C)c1cc(-c2n[nH]c(=O)n2-c2ccc3c(ccn3C)c2)c(O)cc1O`, 79.5 ×10⁻⁶ cm/s.
On to `O=C(Nc1ncc([N+](=O)[O-])s1)c1ccccc1O`, for which the Papp was 8 ×10⁻⁶ cm/s.
Under `CC(=O)OCC1=C(C(=O)O)N2C(=O)[C@@H](N)[C@H]2SC1` stands < 1 ×10⁻⁶ cm/s.
The result for `CC(C)N(CCCNC(=O)Nc1ccc(C(C)(C)C)cc1)C[C@H]1O[C@@H](n2ccc3c(N)ncnc32)[C@H](O)[C@@H]1O` reads < 1 ×10⁻⁶ cm/s; that for `NC1CCN(C(=O)C2CCCN(c3nc(-c4ccccc4)nc4c3CCC4)C2)CC1` (stereo not given), 179 ×10⁻⁶ cm/s.
`CO/N=C(/C(=O)N[C@@H]1C(=O)N2C(C(=O)O)=C(COC(N)=O)CS[C@H]12)c1ccco1` came in with a Papp of 2 ×10⁻⁶ cm/s.
The result for `COCCNCCCn1c(C(=O)CF)c(-c2ccc(C)cc2)c2c(N)ncnc21` reads 20 ×10⁻⁶ cm/s.
On to `O=C1[C@H](CC[C@H](O)c2ccc(F)cc2)[C@@H](c2ccc(O)cc2)N1c1ccc(F)cc1`, for which the Papp is < 1 ×10⁻⁶ cm/s.
Under `O=C(O)c1cc2ccccc2c(Cc2c(O)c(C(=O)O)cc3ccccc23)c1O` stands 3 ×10⁻⁶ cm/s.
The result for `COc1ccc(CCn2cnc3c(c(-c4ccccc4)c(-c4ccccc4)n3Cc3ccccc3)c2=N)cc1OC` reads 287 ×10⁻⁶ cm/s; that for `N=c1c2c(-c3ccccc3)cn(Cc3ccccc3)c2ncn1Cc1ccco1`, 226 ×10⁻⁶ cm/s; that for `O=S(=O)(Nc1cc(Cl)c(Oc2cnc3ccccc3c2)c(Cl)c1)c1ccc(Cl)cc1Cl`, 24 ×10⁻⁶ cm/s.
Under `CNC(=O)C1CCN(C(=O)c2ccc(-c3ncc4cnc(-c5ccccc5)cn34)cc2)CC1` stands 12 ×10⁻⁶ cm/s.
Compound `CCCN(CCC)C1CCc2cccc(O)c2C1` (stereo not given) gave a Papp of 88 ×10⁻⁶ cm/s.
The result for `CCOc1ccc(-c2nn3ncccc3c2-c2ccc(S(C)(=O)=O)cc2)cc1` reads 111 ×10⁻⁶ cm/s.
Under `N=c1c2c(-c3ccccc3)cn(Cc3ccccc3)c2ncn1CCN` stands 131 ×10⁻⁶ cm/s.
In turn, `Nc1c2ccccc2nc2ccccc12` yielded a Papp of 36 ×10⁻⁶ cm/s.
Under `COC(Cn1cnc2c(c(-c3ccccc3)c(-c3ccccc3)n2Cc2ccccc2)c1=N)OC` stands 189 ×10⁻⁶ cm/s.
`O=C(NCCCO)c1ccc(-c2ncc3cnc(-c4cccc(F)c4)cn23)cc1` yielded a Papp of 46 ×10⁻⁶ cm/s.
Under `OCCCCC#Cc1cncc(OC[C@@H]2CCN2)c1` stands < 1 ×10⁻⁶ cm/s.
The result for `O=C(NCCO)c1cc(C(=O)NCCO)cc(C(=O)NCCO)c1` reads < 1 ×10⁻⁶ cm/s; that for `O=C(Nc1ccc(S(=O)(=O)N2CCOCC2)cc1)c1cc(Cl)ccc1NS(=O)(=O)c1ccc(Cl)s1`, 85 ×10⁻⁶ cm/s; that for `CC(C)C[C@H]1C(=O)O[C@H](Cc2ccc(N3CCOCC3)cc2)C(=O)N(C)[C@@H](CC(C)C)C(=O)O[C@H](C)C(=O)N(C)[C@@H](CC(C)C)C(=O)O[C@H](Cc2ccc(N3CCOCC3)cc2)C(=O)N(C)[C@@H](CC(C)C)C(=O)O[C@H](C)C(=O)N1C`, < 1 ×10⁻⁶ cm/s.
`CCN(CC)CCNC(=O)c1c(C)[nH]c(/C=C2\C(=O)Nc3ccc(F)cc32)c1C`: the Papp was found to be 56 ×10⁻⁶ cm/s.
As to `Nc1ccc(-c2ccc3ncc4ccc(=O)n(-c5cccc(C(F)(F)F)c5)c4c3c2)cn1`, the Papp was > 300 ×10⁻⁶ cm/s.
Under `NC(=O)c1cccc(-c2cc(Nc3ccc(OC(F)(F)F)cc3)ncn2)c1` stands 94.4 ×10⁻⁶ cm/s; under `CC(=O)OC[C@@H]1O[C@@H](n2ccc(=O)[nH]c2=O)[C@H](OC(C)=O)[C@H]1OC(C)=O`, < 1 ×10⁻⁶ cm/s.
For `O=C1NC(Nc2ccccc2)=N/C1=C\c1ccc2c(c1)OCO2`, the Papp was < 1 ×10⁻⁶ cm/s.
Under `NCCCNCCCCNC(=O)C(O)NC(=O)CCCCCCN=C(N)N` (stereo not given) stands 38 ×10⁻⁶ cm/s; under `N=c1c2c(-c3ccccc3)cn(Cc3ccc(Br)cc3)c2ncn1CCCCO`, 208 ×10⁻⁶ cm/s.
The result for `CC1=C(C(=O)O)N2C(=O)C(NC(=O)C(N)C3=CCC=CC3)C2SC1` (stereo not given) reads < 1 ×10⁻⁶ cm/s; that for `O=C(c1ccc(-c2ncc3cnc(-c4ccccc4)cn23)cc1)N1CCS(=O)(=O)CC1`, 20 ×10⁻⁶ cm/s; that for `Cc1ccc(-c2csc3ncnc(Sc4nnnn4C)c23)cc1`, > 300 ×10⁻⁶ cm/s.
Under `C[C@@]12CCCCC[C@@H](Cc3ccc(O)cc31)[C@H]2N` stands 74 ×10⁻⁶ cm/s; under `O=C1NC(=O)C(c2ccccc2)(c2ccccc2)N1`, 42 ×10⁻⁶ cm/s.
On to `CCNC(=O)c1noc(-c2cc(C(C)C)c(O)cc2O)c1-c1ccc(CN2CCOCC2)cc1`, for which the Papp is 117 ×10⁻⁶ cm/s.
The result for `CC(C)C(=O)OCc1cccc(OC(=O)[C@@H]2N3C(=O)[C@@H](NC(=O)Cc4ccccc4)[C@H]3SC2(C)C)c1` reads 84 ×10⁻⁶ cm/s.
The result for `O=C(NO)c1cnc(NC2(c3ccccc3)CC2)nc1` reads 2 ×10⁻⁶ cm/s.
`Cn1nnnc1Sc1ncnc2scc(-c3cccc4ccccc34)c12` registered a Papp of 265 ×10⁻⁶ cm/s.
Under `O=C(NCCc1cnc[nH]1)c1ccc(-c2ncc3cnc(-c4cccc(F)c4)cn23)cc1` stands < 1 ×10⁻⁶ cm/s; under `Cc1ccccc1CN1CCn2c(nn(CC3COc4ccccc4O3)c2=O)C1=O` (stereo not given), 57.7 ×10⁻⁶ cm/s; under `CN(C(=O)/C=C/c1ccoc1)[C@@H]1CC[C@@]2(O)[C@H]3Cc4ccc(O)c5c4[C@@]2(CCN3CC2CC2)[C@H]1O5`, 13 ×10⁻⁶ cm/s.
On to `CCO[C@@H]1OC(=O)C[C@@H]1NC(=O)[C@@H]1CCCN2C(=O)CC[C@H](NC(=O)c3nccc4ccccc34)C(=O)N12`, for which the Papp is < 1 ×10⁻⁶ cm/s.
`COc1ccc(S(=O)(=O)Nc2cccnc2Nc2ccc(O)cc2)cc1` had a Papp of 13 ×10⁻⁶ cm/s.
The result for `O=C(N/N=C/c1ccc(O)c(O)c1)c1cc2ccccc2cc1O` reads 5 ×10⁻⁶ cm/s; that for `CCN(CC)CC(=O)Oc1ccc(NC(C)=O)cc1`, 7 ×10⁻⁶ cm/s; that for `COc1ccc(Cl)cc1NC(=O)c1sc2nc3c(cc2c1N)N1CCC3CC1`, < 1 ×10⁻⁶ cm/s.
Under `N=c1c2c(-c3ccccc3)c(-c3ccccc3)n(Cc3ccccc3)c2ncn1CCCCCO` stands 203 ×10⁻⁶ cm/s.
Under `Cn1cnc2c(F)c(Nc3ccc(Br)cc3F)c(C(=O)NOCCO)cc21` stands 19.3 ×10⁻⁶ cm/s.
Compound `N=c1c2c(-c3ccccc3)c(-c3ccccc3)n(Cc3ccccc3)c2ncn1C1CCN(Cc2ccccc2)CC1` showed a Papp of 233 ×10⁻⁶ cm/s.
On to `CC(=O)OCC1=C(C(=O)O)N2C(=O)[C@@H](NC(=O)[C@H](N)c3ccccc3)[C@H]2SC1`, for which the Papp was < 1 ×10⁻⁶ cm/s.
As to `COc1ccccc1NC(=O)C1=C(C)Nc2c(C(=O)Nc3cccc(C)c3)cnn2C1c1ccccc1Cl` (stereo not given), the Papp is 160 ×10⁻⁶ cm/s.
In the case of `CC(C)C[C@H](NC(=O)CNC(=O)c1cc(Cl)ccc1Cl)B1OC(=O)C(CC(=O)O)(CC(=O)O)O1`, the Papp was < 1 ×10⁻⁶ cm/s.
